Experimental data reported in patent publication US20240342292A1, “Compounds for the Degradation of EGFR Kinase” (BeiGene Switzerland GmbH, priority 2021, published 2024).

Legend:
Del19/T790M/C797S EGFR = experiment: EGFR degradation HTRF assay in H1975-clone #28 (DTC) cells; type: cell-based; details: H1975 # 28 DTC (Del19/T790M/C797S), 16h treatment; for DC50: HTRF; for Dmax (%): maximum percentage of degradation
Outline: (§1)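 DC50 from a four-parameter fit of HTRF signal. H1975 mutant-EGFR clones with endogenous EGFR knocked out; 16 h treatment, 10 uM top, 5-fold × 8.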

L858R/T790M/C797S EGFR = target: T1, L858R/T790M/C797S EGFR (Homo sapiens, UniProt P00533, C797S/L858R/T790M); experiment: EGFR degradation HTRF assay in H1975-clone #25 (LTC) cells; type: cell-based; details: 16h treatment; for DC50: H1975 # 25-LTC (L858R/T790M/C797S), HTRF; for Dmax: NCI-H1975, H1975 # 25-LTC (L858R/T790M/C797S), maximum percentage of degradation
T1 construct: expressed in transfected cells; host or cells: H1975 clone #25 (lentiviral over-expression, endogenous EGFR knocked out by sgRNA)
T1 sequence (P00533 25-1210 T790M/C797S/L858R): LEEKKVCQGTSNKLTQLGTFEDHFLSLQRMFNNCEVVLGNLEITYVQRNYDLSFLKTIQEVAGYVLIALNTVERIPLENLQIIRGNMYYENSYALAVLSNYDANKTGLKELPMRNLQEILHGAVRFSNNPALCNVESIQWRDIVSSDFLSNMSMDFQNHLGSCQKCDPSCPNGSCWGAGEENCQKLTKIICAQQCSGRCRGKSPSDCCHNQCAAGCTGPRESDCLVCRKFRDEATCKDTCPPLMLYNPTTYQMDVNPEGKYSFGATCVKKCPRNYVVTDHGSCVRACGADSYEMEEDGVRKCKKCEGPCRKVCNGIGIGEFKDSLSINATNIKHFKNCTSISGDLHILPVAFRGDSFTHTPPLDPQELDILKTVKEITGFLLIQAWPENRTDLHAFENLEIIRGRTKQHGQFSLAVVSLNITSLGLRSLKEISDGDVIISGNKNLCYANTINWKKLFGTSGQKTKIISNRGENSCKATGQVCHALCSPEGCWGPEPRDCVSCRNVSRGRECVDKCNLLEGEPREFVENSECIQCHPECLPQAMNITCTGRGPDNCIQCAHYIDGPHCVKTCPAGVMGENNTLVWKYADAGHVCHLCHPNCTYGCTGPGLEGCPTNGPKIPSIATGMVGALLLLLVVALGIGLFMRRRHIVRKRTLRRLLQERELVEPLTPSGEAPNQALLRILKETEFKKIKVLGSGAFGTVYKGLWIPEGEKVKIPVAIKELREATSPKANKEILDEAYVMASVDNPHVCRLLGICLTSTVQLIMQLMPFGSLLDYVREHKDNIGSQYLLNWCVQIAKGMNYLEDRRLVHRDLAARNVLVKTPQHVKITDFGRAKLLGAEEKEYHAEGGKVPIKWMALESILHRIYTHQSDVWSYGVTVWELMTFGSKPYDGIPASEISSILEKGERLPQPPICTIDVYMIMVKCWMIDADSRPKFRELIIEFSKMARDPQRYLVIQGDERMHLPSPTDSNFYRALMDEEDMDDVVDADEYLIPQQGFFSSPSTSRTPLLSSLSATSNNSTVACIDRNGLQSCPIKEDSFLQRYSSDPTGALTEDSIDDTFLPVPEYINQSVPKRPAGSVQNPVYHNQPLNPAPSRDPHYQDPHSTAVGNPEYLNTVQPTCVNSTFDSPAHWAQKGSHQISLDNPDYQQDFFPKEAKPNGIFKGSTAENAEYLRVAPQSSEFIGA
Outline: as §1

| Structure (SMILES) | DC50 (Del19/T790M/C797S EGFR) [nM] | DC50 (L858R/T790M/C797S EGFR) [nM] | Dmax (L858R/T790M/C797S EGFR) [%] | Dmax (%) (Del19/T790M/C797S EGFR) |
| --- | --- | --- | --- | --- |
| COC[C@H]1CN(C(=O)[C@@H]2CCN(c3cc(F)c([C@H]4CCC(=O)NC4=O)c(F)c3)C2)CCN1Cc1ccc2c(c1)N1C[C@H](C)CCCOc3c(cnn3C)-c3cc(cc(C)n3)C(=O)/N=C/1N2 [Example 194, (R)-3-(2,6-difluoro-4-((R)-3-((R)-3-(methoxymethyl)-4-(((R,E)-1^1,2^6,7-trimethyl-3-oxo-5^2,5^3-dihydro-1^1H,5^1H-11-oxa-4-aza-5(2,1)-benzo[d]imidazola-2(2,4)-pyridina-1(4,5)-pyrazolacycloundecaphane-5′-yl)methyl)piperazine-1-carbonyl)pyrrolidin-1-yl)phenyl)piperidine-2,6-dione] | 0.836 | 1.18 | 84.4 | 79.44 |
| Cc1cc2cc(n1)-c1cnn(C)c1OCCC[C@@H](C)CN1/C(=N/C2=O)Nc2ccc(CN3CCN(C(=O)[C@@H]4CCN(c5cc(F)c([C@H]6CCC(=O)NC6=O)c(F)c5)C4)C[C@@H]3CO)cc21 [Example 195, (R)-3-(2,6-difluoro-4-((R)-3-((R)-3-(hydroxymethyl)-4-(((R,E)-1^1,2^5,7-trimethyl-3-oxo-5^2,5^3-dihydro-1^1H,5^1H-11-oxa-4-aza-5(2,1)-benzo[d]imidazola-2(2,4)-pyridina-(4,5)-pyrazolacycloundecaphane-5^6-yl)methyl)piperazine-1-carbonyl)pyrrolidin-1-yl)phenyl)piperidine-2,6-dione] | 0.712 | 0.731 | 85.5 | 76.37 |
| Cc1cc2cc(n1)-c1cnn(C)c1OCCC[C@@H](C)CN1/C(=N/C2=O)Nc2ccc(CN3CCN(C(=O)[C@@H]4CCN(c5cc(F)c([C@H]6CCC(=O)NC6=O)c(F)c5)C4)CC34COC4)cc21 [Example 199, (R)-3-(2,6-difluoro-4-((R)-3-(5-(((R,E)-1^1,2^6,7-trimethyl-3-oxo-5^2,5^3-dihydro-1^1H,5^1H-11-oxa-4-aza-5(2,1)-benzo[d]imidazola-2(2,4)-pyridina-1(4,5)-pyrazolacycloundecaphane-5^6-yl)methyl)-2-oxa-5,8-diazaspiro[3.5]nonane-8-carbonyl)pyrrolidin-1-yl)phenyl)piperidine-2,6-dione] | 0.752 | 0.638 | 76.5 | 73.3 |
| Cc1cc2cc(n1)-c1cnn(C)c1OCCC[C@@H](C)CN1/C(=N/C2=O)Nc2ccc(CN3CCN(C(=O)[C@@H]4CCN(c5cc(F)c([C@H]6CCC(=O)NC6=O)c(F)c5)C4)CC3=O)cc21 [Example 200, (R)-3-(2,6-difluoro-4-((R)-3-(3-oxo-4-(((R,E)-1^1,2^6,7-trimethyl-3-oxo-5^2,5^3-dihydro-1^1H,5^1H-11-oxa-4-aza-5(2,1)-benzo[d]imidazola-2(2,4)-pyridina-1(4,5)-pyrazolacycloundecaphane-5^6-yl)methyl)piperazine-1-carbonyl)pyrrolidin-1-yl)phenyl)piperidine-2,6-dione] | 1.38 | 1.22 | 86 | 73.04 |
| COC[C@@H]1CN(Cc2ccc3c(c2)N2C[C@H](C)CCCOc4c(cnn4C)-c4cc(cc(C)n4)C(=O)/N=C/2N3)CCN1C(=O)[C@@H]1CCN(c2cc(F)c([C@H]3CCC(=O)NC3=O)c(F)c2)C1 [Example 202, (R)-3-(2,6-difluoro-4-((R)-3-((S)-2-(methoxymethyl)-4-(((R,E)-1^1,2^6,7-trimethyl-3-oxo-5^2,5^3-dihydro-1^1H,5^1H-li-oxa-4-aza-5(2,1)-benzo[d]imidazola-2(2,4)-pyridina-(4,5)-pyrazolacycloundecaphane-5^6-yl)methyl)piperazine-1-carbonyl)pyrrolidin-1-yl)phenyl)piperidine-2,6-dione] | 1.32 | 0.89 | 78.8 | 72.07 |
| Cc1cc2cc(n1)-c1cnn(C)c1OCCC[C@@H](C)CN1/C(=N/C2=O)Nc2ccc(N(C)C3CCN(C4CCN(c5cc(F)c([C@H]6CCC(=O)NC6=O)c(F)c5)CC4)CC3)cc21 [Example 214, (R)-3-(2,6-difluoro-4-(4-(methyl((R,E)-1^1,2^6,7-trimethyl-3-oxo-5^2,5^3-dihydro-1^1H,5^1H-11-oxa-4-aza-5(2,1)-benzo[d]imidazola-2(2,4)-pyridina-1(4,5)-pyrazolacycloundecaphane-5-yl)amino)-[1,4′-bipiperidin]-1′-yl)phenyl)piperidine-2,6-dione] | 1.32 | 2.59 | 79.4 | 72.32 |
| Cc1cc2cc(n1)-c1cnn(C)c1OCCC[C@@H](C)CN1/C(=N/C2=O)Nc2ccc(CN3CCC(N4CCN(C(=O)[C@H]5CCN(c6ccc7c(c6)C(=O)N(C6CCC(=O)NC6=O)C7=O)C5)CC4)CC3)cc21 (stereo partly shown) [Example 216] | 3.02 | 9.55 | 81.8 | 82.64 |
| Cc1cc2cc(n1)-c1cnn(C)c1OCCC[C@@H](C)CN1/C(=N/C2=O)Nc2cc(F)c(C(=O)N(C)C3CCN(CCc4cc(F)c([C@H]5CCC(=O)NC5=O)c(F)c4)CC3)cc21 [Example 232, (R,E)-N-(1-(4-((R)-2,6-dioxopiperidin-3-yl)-3,5-difluorophenethyl)piperidin-4-yl)-5^5-fluoro-N,1^1,2^6,7-tetramethyl-3-oxo-5^2,5^3-dihydro-1^1H,5^1H-11-oxa-4-aza-5(2,1)-benzo[d]imidazola-2(2,4)-pyridina-1(4,5)-pyrazolacycloundecaphane-5^6-carboxamide] | 0.292 | 0.318 | 92 | 82.7 |
| Cc1cc2cc(n1)-c1c(C)nn(C)c1OCCC[C@@H](C)CN1/C(=N/C2=O)Nc2ccc(C(=O)N(C)C3CCN(CCc4cc(F)c([C@H]5CCC(=O)NC5=O)c(F)c4)CC3)cc21 [Example 233, (R,E)-N-(1-(4-((R)-2,6-dioxopiperidin-3-yl)-3,5-difluorophenethyl)piperidin-4-yl)-N,1^1,1^3,2^6,7-penta methyl-3-oxo-5^2,5^3-dihydro-1^1H,5^1H-11-oxa-4-aza-5(2,1)-benzo[d]imidazola-2(2,4)-pyridina-1(4,5)-pyrazolacycloundecaphane-5^6-carboxamide] | 0.806 | 1.05 | 91.2 | 86.73 |

Continued by falling DC50 (Del19/T790M/C797S EGFR), values first:

| DC50 (Del19/T790M/C797S EGFR) [nM] | DC50 (L858R/T790M/C797S EGFR) [nM] | Dmax (L858R/T790M/C797S EGFR) [%] | Structure (SMILES) | Dmax (%) (Del19/T790M/C797S EGFR) |
| --- | --- | --- | --- | --- |
| 1.79 | 1.27 | 86.9 | Cc1cc2cc(n1)-c1cnn(C)c1OCCC[C@@H](C)CN1/C(=N/C2=O)Nc2ccc(C(=O)N3CC4(C3)CN(C(=O)C3CN(c5cc(F)c([C@H]6CCC(=O)NC6=O)c(F)c5)C3)C4)cc21 [Example 229, (R)-3-(2,6-difluoro-4-(3-(6-((R,E)-1^1,2^6,7-trimethyl-3-oxo-5^2,5^3-dihydro-1^1H,5^1H-11-oxa-4-aza-5(2,1)-benzo[d]imidazola-2(2,4)-pyridina-1(4,5)-pyrazolacycloundecaphane-5^6-carbonyl)-2,6-diazaspiroheptane-2-carbonyl)azetidin-1-yl)phenyl)piperidine-2,6-dione] | 78.12 |
| 0.901 | 0.852 | 85.1 | Cc1cc2cc(n1)-c1cnn(C)c1OCCC[C@@H](C)CN1/C(=N/C2=O)Nc2ccc(CN3CCN(C(=O)[C@@H]4CCN(c5ccc(F)c6c5n(C)c(=O)n6C5CCC(=O)NC5=O)C4)CC3)cc21 (stereo partly drawn) [Example 211, 3-(7-fluoro-3-methyl-2-oxo-4-((R)-3-(4-(((R,E)-1^1,2^6,7-trimethyl-3-oxo-5^2,5^3-dihydro-1^1H,5^1H-11-oxa-4-aza-5(2,1)-benzo[d]imidazola-2(2,4)-pyridina-1(4,5)-pyrazolacycloundecaphane-5^6-yl)methyl)piperazine-1-carbonyl)pyrrolidin-1-yl)-2,3-dihydro-1H-benzo[d]imidazol-1-yl)piperidine-2,6-dione] | 75.24 |
| 0.901 | 0.705 | 94 | Cc1cc2cc(n1)-c1cnn(C)c1OCCC[C@@H](C)CN1/C(=N/C2=O)Nc2ccc(C(=O)N3CCC4(CC3)CN(C(=O)C3CN(c5cc(F)c([C@H]6CCC(=O)NC6=O)c(F)c5)C3)C4)cc21 [Example 221, (R)-3-(2,6-difluoro-4-(3-(7-((R,E)-1^1,2^6,7-trimethyl-3-oxo-5^2,53-dihydro-1^1H,5^1H-11-oxa-4-aza-5(2,1)-benzo[d]imidazola-2(2,4)-pyridina-1(4,5)-pyrazolacycloundecaphane-5^6-carbonyl)-2,7-diazaspirononane-2-carbonyl)azetidin-1-yl)phenyl)piperidine-2,6-dione] | 85.41 |
| 0.598 | 0.716 | 87.1 | Cc1cc2cc(n1)-c1cnn(C)c1OCCC[C@@H](C)CN1/C(=N/C2=O)Nc2ccc(CN3CCN(C(=O)[C@@H]4CCN(c5cc(F)c([C@H]6CCC(=O)NC6=O)c(F)c5)C4)C[C@H]3CO)cc21 [Example 196, (R)-3-(2,6-difluoro-4-((R)-3-((S)-3-(hydroxymethyl)-4-(((R,E)-1^1,2^6,7-trimethyl-3-oxo-5^2,5^3-dihydro-1^1H,5^1H-11-oxa-4-aza-5(2,1)-benzo[d]imidazola-2(2,4)-pyridina-1(4,5)-pyrazolacycloundecaphane-56-yl)methyl)piperazine-1-carbonyl)pyrrolidin-1-yl)phenyl)piperidine-2,6-dione] | 78.44 |
